From publication PMC13401508 (Pharmacological research, 2026)

What was measured:
Caco-2 cell monolayer = assay: Caco-2 bidirectional permeability; type: in vitro ADME; settings: 10 µM
Method: To prepare the Caco-2 cell monolayer, 50 µL and 25 µL of cell culture medium (Dulbecco’s modified Eagle’s medium, DMEM) were added to each well of the inserts and reservoir, respectively, within a 96-well HTS Transwell plate (Corning, NY, USA). The plate was incubated at 37 °C and 5% CO2 for 1 hr. prior to cell seeding. Caco-2 cells were then diluted to 6.86 x 10^5 cells/mL using culture medium and 50 µL of cell suspension were seeded into the plate, and incubated at 37 °C, 5% CO2, and 95% relative humidity for 14-18 days. During this time, the cells were cultivated with media replacements occurring every other day. Cells were allowed to grow and differentiate and the integrity of the Caco-2 cell monolayer was evaluated by measurement of transepithelial electrical resistance (TEER) using a Millicell Epithelial Volt-Ohm measuring system (Millipore, USA).
Prior to the assay, the established monolayer was washed twice with pre-warmed HBSS and incubated at 37 °C for 30 minutes. A bidirectional permeability assay was performed simultaneously using two different plates as described previously (Supplementary Reference: Cui Y, Desevaux C, Truebenbach I, Sieger P, Klinder K, Long A, Sauer A. A Bidirectional Permeability Assay for beyond Rule of 5 Compounds. Pharmaceutics. 2021 Jul 27;13(8):1146. doi: 10.3390/pharmaceutics13081146. PMID: 34452112; PMCID: PMC8400635.): one assessed permeability from the apical to the basolateral side, while the other assessed from the basolateral to the apical side. […] For apical to basolateral permeability, 108 µL of working solution was loaded into the apical compartment, whereas 308 µL of working solution was added to the basolateral compartment for basolateral to apical permeability. The samples collected from donor and receiver compartment were mixed with 72 µL transport buffer and 240 µL of acetonitrile containing internal standard (IS, 100 nM alprazolam, 200 nM Caffeine and 100 nM tolbutamide), centrifuged at 1000 rpm for 10 minutes. […] In doing so, the following equations were used: […]
Where, Papp is apparent permeability (cm/s x 10^-6), dQ/dt is the rate of drug transport (pmol/second), A is the surface area of the membrane (cm^2), and D0 is the initial donor concentration (nM; pmol/cm^3). (B-A) indicates basolateral to apical permeation, where (A-B) indicates apical to basolateral.

[1] = Visible toxicity in animals; settings: in vivo
PDGF-AA = PDGF-AA protein in conditioned media by ELISA; type: cell-based, human; settings: conditioned media of PC3-ML, ARCaP-M and C4–2B cells
Method: (§1) Human and mouse specific CXCL5, PDGF-AA ELISA kits were obtained from R&D Systems, USA. All ELISAs were performed using the manufacturer’s protocol.
Fig. 2. […] NF-κB activity was measured by absorbance at 450 nm (n = 3 ± SD; * p < 0.05). […] C) PDGF-AA protein levels were determined in the three PC cell line-derived conditioned media by ELISA. In both panels: n = 3 ± SD; * p < 0.05.

CXCL5 = assay: Secreted CXCL5 by ELISA in HS5 conditioned media; type: cell-based, human; settings: PDGF-AA activated HS5 cells, 24 hrs
Method: as §1
Fig. 3. […] CXCL5 mRNA expression was measured by qRT-PCR. […] Secreted CXCL5 in CM was measured by ELISA (n = 3 ± SD; * p < 0.05). […] CXCL5 mRNA expression was measured by qRT-PCR (n = 3 ± SD; * p < 0.05).

[2] = test system: Salmonella typhimurium TA98 & TA100; assay: Mini-Ames assay; type: cell-based; settings: with or without S9 mix
Method: The mini-AMES assay was performed in Pharmaron, Inc. following the standard protocol as developed by the in-house scientist. […] The assay was conducted in the presence or absence of the S9 mix along with concurrent negative/solvent control and positive controls.

PXR = molecular target: T1, PXR (Homo sapiens, UniProt O75469); assay: PXR assay using DPX2 cells; type: cell-based
T1 construct: expressed in transfected cells; host or cells: DPX2 cells
T1 sequence (O75469 1-434): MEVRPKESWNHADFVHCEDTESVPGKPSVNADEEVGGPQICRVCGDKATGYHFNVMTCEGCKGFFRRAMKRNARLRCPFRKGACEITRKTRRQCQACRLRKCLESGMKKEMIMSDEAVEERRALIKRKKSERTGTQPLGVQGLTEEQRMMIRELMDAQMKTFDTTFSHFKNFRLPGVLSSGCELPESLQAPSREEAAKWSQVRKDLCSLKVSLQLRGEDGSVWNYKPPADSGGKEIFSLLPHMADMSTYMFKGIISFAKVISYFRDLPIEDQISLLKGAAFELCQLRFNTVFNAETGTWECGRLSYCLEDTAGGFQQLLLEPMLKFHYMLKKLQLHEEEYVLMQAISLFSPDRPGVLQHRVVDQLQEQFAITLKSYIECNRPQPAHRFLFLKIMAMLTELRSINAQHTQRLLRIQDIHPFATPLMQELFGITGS
Method: DPX2 cells were initially cultured in T-75 flasks and maintained at 37°C in a humidified incubator with 5% CO2 and 95% relative humidity. Cells were allowed to reach 70-80% confluence prior to subculture. Next, cells were transferred to a culture plate and incubated for an additional 24 hours to allow for attachment and recovery prior to treatment. […] Cell viability and luciferase activity were measured using the CellTiter-Fluor™ Cell Viability Assay and One-GloTM Luciferase Assay System, respectively. Luciferase activity was normalized to viable number and fold activation of PXR was calculated using the following equation: […]

[3] = Log D by shake flask (pH 7.4); type: physicochemical; settings: pH 7.4, octanol/phosphate buffer
Method: Sodium Phosphate buffer pH 7.4 (10 mM) was used as the aqueous phase and octanol was used as the organic phase. […] The sealed plate was incubated at 25 °C with continuous agitation at 2000 rpm for 2 hrs. Samples were then separated by centrifugation, diluted 100-fold with a mixture of H20 and acetonitrile containing internal standard, and analyzed via LC-MS/MS. The Log D value was calculated using the following equation: […]

For `Cc1cc(NC(=O)CCc2nnc(-c3ccccc3)o2)c(C)cc1N` [IVMT-Rx-4], the “Caco-2 Bidirectional A-B” value (Caco-2 cell monolayer; apical to basolateral) was 21.5 ×10⁻⁶ cm/s, the “Caco-2 Bidirectional B-A” value (Caco-2 cell monolayer; basolateral to apical) was 19.9 ×10⁻⁶ cm/s and the “visible toxicity in animals” value [1] was “without provoking any visible toxicity”. For the same molecule, the PDGF-AA protein level (PDGF-AA) was “decreased PDGF-AA”, the CXCL5 protein level (CXCL5) was “significantly decreased” and the “cytotoxicity to tester strains in Mini-Ames assay” value ([2]; 1.5 to 1000 μg/well) was “No obvious cytotoxicity”. The “Mini-Ames Assay (2-strain option: TA98 & TA100)” value [2] was “Weakly positive for 2 strains”, the PXR assay (PXR) was “No induction” and the logD at 2 h [3] was 1.49.
